For the test, the system named is r(CUG)12-MBNL1 complex. The experiment in a line: Inhibition of the r(CUG)12-MBNL1 complex measured by TR-FRET. Type of test: biochemical. The following applies: Table M; 80 nM RNA, 60 nM MBNL1-His6.

We go through 38 compounds from patent US10961202B2, “Bis-benzimidazole compounds and methods of using the same” (THE SCRIPPS RESEARCH INSTITUTE, priority 2017, dated 2021).

pIC50: −log10 of the molar value.

In turn, `CN1CCN(CCNC(=O)c2ccc(-c3nc4cc(-c5ccc6[nH]c(-c7ccc(C(=O)O)cc7)nc6c5)ccc4[nH]3)cc2)CC1` [Compound 343] showed a negative logarithm of the IC50 (pIC50) of 4.14.
Under `CN1CCC(NC(=O)c2ccc(-c3nc4cc(-c5ccc6[nH]c(-c7ccc(C(=O)O)cc7)nc6c5)ccc4[nH]3)cc2)CC1` [Compound 344] stands 3.81.
`CN(C)CCNC(=O)c1ccc(-c2nc3cc(-c4ccc5[nH]c(-c6ccc(C(=O)NCCN(C)CCCCc7cn(CCCNC(=O)CCC(=O)NCCCN=[N+]=[N-])nn7)cc6)nc5c4)ccc3[nH]2)cc1` [Compound 345] gave a pIC50 of 4.47.
Take `CCN(CC)C(=O)COc1ccc(-c2nc3cc(-c4ccc5[nH]c(-c6ccc(OCC(=O)N(CC)CC)cc6)nc5c4)ccc3[nH]2)cc1` [Compound 349]: the pIC50 was under 3.70.
In turn, `c1cc(-c2nc3cc(-c4ccc5[nH]c(-c6ccc(OCCN7CCOCC7)cc6)nc5c4)ccc3[nH]2)ccc1OCCN1CCOCC1` [Compound 351] had a pIC50 of at most 3.70.
Under `CN(C)CCOc1ccc(-c2nc3cc(-c4ccc5[nH]c(-c6cccc(OCCN(C)C)c6)nc5c4)ccc3[nH]2)cc1` [Compound 355] stands 4.95.
Under `CN1CCCCC1COc1ccc(-c2nc3cc(-c4ccc5[nH]c(-c6ccc(OCC7CCCCN7C)cc6)nc5c4)ccc3[nH]2)cc1` (centres unmarked) [Compound 359] stands 4.18; under `Cc1cc(-c2nc3cc(-c4ccc5[nH]c(-c6cc(C)c(OCCCN(C)C)c(C)c6)nc5c4)ccc3[nH]2)cc(C)c1OCCCN(C)C` [Compound 360], 4.67; under `Cc1cc(-c2nc3cc(-c4ccc5[nH]c(-c6cc(C)c(OCCCN(C)C)c(C)c6)nc5c4)ccc3[nH]2)cc(C)c1O` [Compound 361], 5.02.
Under `CN(C)CCCCOc1ccc(-c2nc3cc(-c4ccc5[nH]c(-c6ccc(OCCCCN(C)C)cc6)nc5c4)ccc3[nH]2)cc1` [Compound 362] stands 4.54; under `CN(C)CCCCOc1ccc(-c2nc3cc(-c4ccc5[nH]c(-c6ccc(O)cc6)nc5c4)ccc3[nH]2)cc1` [Compound 363], 4.73; under `Cc1cc(-c2nc3cc(-c4ccc5[nH]c(-c6ccc(OCCCN(C)C)c(C)c6)nc5c4)ccc3[nH]2)ccc1OCCCN(C)C` [Compound 364], 5.12.
Regarding `Cc1cc(-c2nc3cc(-c4ccc5[nH]c(-c6ccc(OCCCN(C)C)c(C)c6)nc5c4)ccc3[nH]2)ccc1O` [Compound 365], the pIC50 is 5.01.
In turn, `CN1C(C)(C)CC(Oc2ccc(-c3nc4cc(-c5ccc6[nH]c(-c7ccc(OC8CC(C)(C)N(C)C(C)(C)C8)cc7)nc6c5)ccc4[nH]3)cc2)CC1(C)C` [Compound 366] showed a pIC50 of under 3.70.
Under `CN(C)CCOCCOc1ccc(-c2nc3cc(-c4ccc5[nH]c(-c6ccc(OCCOCCN(C)C)cc6)nc5c4)ccc3[nH]2)cc1` [Compound 367] stands 4.67; under `CN(C)CCOCCOc1ccc(-c2nc3cc(-c4ccc5[nH]c(-c6ccc(O)cc6)nc5c4)ccc3[nH]2)cc1` [Compound 368], 4.74.
Under `CN(C)CC(CN(C)C)Oc1ccc(-c2nc3cc(-c4ccc5[nH]c(-c6ccc(OC(CN(C)C)CN(C)C)cc6)nc5c4)ccc3[nH]2)cc1` [Compound 369] stands under 3.70; under `CN(C)CC(CN(C)C)Oc1ccc(-c2nc3cc(-c4ccc5[nH]c(-c6ccc(O)cc6)nc5c4)ccc3[nH]2)cc1` [Compound 370], 4.08; under `CN(C)CCCOc1c(C(C)(C)C)cc(-c2nc3cc(-c4ccc5[nH]c(-c6cc(C(C)(C)C)c(O)c(C(C)(C)C)c6)nc5c4)ccc3[nH]2)cc1C(C)(C)C` [Compound 372, 2,6-di-tert-butyl-4-(2′-(3,5-di-tert-butyl-4-(3-(dimethylamino)propoxy)phenyl)-1H,1′H-[5,5′-bibenzo[d]imidazol]-2-yl)phenol], under 3.70.
Under `CN1CC[C@@H](Oc2ccc(-c3nc4cc(-c5ccc6[nH]c(-c7ccc(O[C@@H]8CCN(C)C8)cc7)nc6c5)ccc4[nH]3)cc2)C1` [Compound 373] stands 4.53.
`CN1CC[C@@H](Oc2ccc(-c3nc4cc(-c5ccc6[nH]c(-c7ccc(O)cc7)nc6c5)ccc4[nH]3)cc2)C1` [Compound 374]: the pIC50 was 4.89.
On to `CN(C)CC(C)(C)COc1ccc(-c2nc3cc(-c4ccc5[nH]c(-c6ccc(OCC(C)(C)CN(C)C)cc6)nc5c4)ccc3[nH]2)cc1` [Compound 376], for which the negative logarithm of the IC50 (pIC50) is 4.16.
Under `NCCCOc1ccc(-c2nc3cc(-c4ccc5[nH]c(-c6ccc(OCCCN)cc6)nc5c4)ccc3[nH]2)cc1` [Compound 378] stands 4.76; under `[N-]=[N+]=NCCCOc1ccc(-c2nc3cc(-c4ccc5[nH]c(-c6ccc(OCCCN)cc6)nc5c4)ccc3[nH]2)cc1` [Compound 379], 4.54.
Under `NCCCOc1ccc(-c2nc3cc(-c4ccc5[nH]c(-c6ccc(O)cc6)nc5c4)ccc3[nH]2)cc1` [Compound 380] stands 4.78; under `CN(C)CCSc1ccc(-c2nc3cc(-c4ccc5[nH]c(-c6ccc(SCCN(C)C)cc6)nc5c4)ccc3[nH]2)cc1` [Compound 381], 4.30; under `CN(C)CCNC(=O)c1ccc(-c2nc3cc(-c4ccc5[nH]c(-c6ccc(OCCN(C)C)cc6)nc5c4)ccc3[nH]2)cc1` [Compound 382], 4.76.
Under `CN(C)CCCSc1ccc(-c2nc3cc(-c4ccc5[nH]c(-c6ccc(SCCCN(C)C)cc6)nc5c4)ccc3[nH]2)cc1` [Compound 383] stands 4.38; under `CN(C)CCCCc1ccc(-c2nc3cc(-c4ccc5[nH]c(-c6ccc(CCCCN(C)C)cc6)nc5c4)ccc3[nH]2)cc1` [Compound 385], 4.51; under `CN(C)CCC#Cc1ccc(-c2nc3cc(-c4ccc5[nH]c(-c6ccc(C#CCCN(C)C)cc6)nc5c4)ccc3[nH]2)cc1` [Compound 386], 4.33.
As to `CN(C)CCCSc1ccc(-c2nc3cc(-c4ccc5[nH]c(-c6ccc(C(=O)NCCN(C)C)cc6)nc5c4)ccc3[nH]2)cc1` [Compound 387], the negative logarithm of the IC50 (pIC50) is 5.05. Compared with the last compound, the pIC50 is 0.72 log units higher.
For the compound `C[C@H](CN(C)C)NC(=O)c1ccc(-c2nc3cc(-c4ccc5[nH]c(-c6ccc(C(=O)N[C@H](C)CN(C)C)cc6)nc5c4)ccc3[nH]2)cc1` [Compound 388], the pIC50 is 4.52.
Under `C[C@@H](CN(C)C)NC(=O)c1ccc(-c2nc3cc(-c4ccc5[nH]c(-c6ccc(C(=O)N[C@@H](C)CN(C)C)cc6)nc5c4)ccc3[nH]2)cc1` [Compound 389] stands 4.47; under `CN(C)CCNC(=O)c1ccc(-c2nc3cc(-c4ccc5[nH]c(-c6ccc(C(=O)O)cc6)nc5c4)ccc3[nH]2)cc1` [Compound 390, 4-(2′-(4-((2-(dimethylamino)ethyl)carbamoyl)phenyl)-3H,3′H-[5,5′-bibenzo[d]imidazol]-2-yl)benzoic acid], under 3.70; under `COCCCOc1ccc(-c2nc3cc(-c4ccc5[nH]c(-c6ccc(C(=O)NCCN(C)C)cc6)nc5c4)ccc3[nH]2)cc1` [Compound 391], 4.73.
Under `CCCCCOc1ccc(-c2nc3cc(-c4ccc5[nH]c(-c6ccc(C(=O)NCCN(C)C)cc6)nc5c4)ccc3[nH]2)cc1` [Compound 392] stands 4.74.
For the compound `CN(C)CCNC(=O)c1ccc(-c2nc3cc(-c4ccc5[nH]c(-c6ccc(OCCCC#N)cc6)nc5c4)ccc3[nH]2)cc1` [Compound 394], the pIC50 was 4.72.
Under `CN(C)CCCOc1ccc(-c2nc3cc(-c4ccc(C(=O)NCCN(C)CCN)cc4)ccc3[nH]2)cc1` [Compound 395] stands under 3.70.

By pIC50 is commonly meant −log10 of the IC50, conventionally taken in molar units. A lower pIC50 goes with a large IC50.
